Laboratory results from patent publication US9694015B2, “Methods for the treatment of locally advanced breast cancer” (Celgene Corporation, priority 2012, dated 2017).
Several values for one entry are separate records, joined by “and”; a condition that tells them apart may be missing. Equal entries are not always repeated.

Tests used:
Ikaros = Ikaros (Homo sapiens (Human), UniProt Q13422); assay: Ikaros expression by western blot at 6 hours; format: cell-based; conditions: western blot at 6 hours after the treatment
[1] = system: U87 (GBM), H929 (MM), WSU-DLCL2 and DOHH2 (NHL) xenografts; assay: Xenografts, single agent; format: in vivo
[2] = GLP 28-day toxicity study in rat; format: in vivo
RANTES = assay: LPS-stimulated hPBMC cytokine/chemokine production: RANTES enhancement; format: cell-based, human
Aiolos [3] = biological target: T1, Aiolos (Homo sapiens (Human), UniProt Q9UKT9); assay: Aiolos protein in myeloma cells; format: cell-based
tumor cells = assay: Direct in vitro activity against tumor cells; format: cell-based
Aiolos [4] = biological target: T1, Aiolos; assay: Overexpressed flag-Aiolos-myc fusion protein in AU565 cells (western blot); format: cell-based
Method: In some experiments, cell lines were transfected with an Aiolos overexpression vector using Lipofectamine reagent in a batch method. Cells were seeded in a 12 well plate at 1×10^5 cells in a 3 mL volume per well. Where specified, cells were pretreated with MG132 at 10 uM for 1 hour, or DMSO was added as a control.
(§1) Cells were harvested and lysed in Pierce #89900 Ripa buffer containing 2× protease inhibitor cocktail from Pierce #78442. The lysate was applied to a QiaShredder to remove DNA. Total protein yield was measured using BioRad DC protein determination kit (Cat#500-0112). Lysates were stored at −80° C. until use. Samples were applied to BioRad Criterion PreCast gels, 10% (Bio-Rad#345-0010) and transferred to Bio-Rad Nitrocellulose/Filter Paper Sandwiches (#162-0233) for western blot analysis.

MCP-1 = assay: LPS-stimulated hPBMC cytokine/chemokine production: MCP-1 enhancement; format: cell-based, human
Source text: (§2) Data provided are IC50 (μM) values for the indicated cytokines

NFKB = NFKB DNA binding activity in DLBCL cells; format: cell-based
Aiolos [5] = biological target: T1, Aiolos; assay: Aiolos expression with and without proteasome inhibitor; format: cell-based
Source text: It appeared that the inhibitory effect correlates with compound's anti-proleferative activity in myeloma cells.

IL-10 = assay: LPS-stimulated hPBMC cytokine/chemokine production: IL-10 enhancement; format: cell-based, human
Source text: as §2

[6] = GLP 28-day toxicity study in monkey; format: in vivo
HIF1-α = assay: Hypoxia-induced HIF1-α expression in solid tumor cell lines; format: cell-based; conditions: solid tumor cell lines (e.g., breast, ovarian, colorectal, HCC)
Aiolos [7] = biological target: T1, Aiolos; assay: Aiolos expression by western blot at 6 hours; format: cell-based; conditions: western blot at 6 hours after the treatment
Aiolos [8] = biological target: T1, Aiolos; assay: Endogenous Aiolos in breast cancer cells (western blot); format: cell-based
Method: Cell lines (AU565, ZR 75-1, BT-474, EFM-192A, HCC1954, HCC70, MB436 and BT549) were maintained using standard cell culture techniques. For endogenous Aiolos expression, cells were seeded in a 6 well plate at 0.5×10^6 cells per well in a 3 mL volume of media. Cells were allowed to adhere to the plate overnight.
as §1

## Cc1nc2cccc(N)c2c(=O)n1C1CCC(=O)NC1=O (stereo not shown) [Compound A, 3-(5-amino-2-methyl-4-oxo-4H-quinazolin-3-yl)-piperidine-2,6-dione]
Ikaros
  expression of Ikaros: inhibited
[1]
  single agent activity in xenografts: single agent activity was observed
[2]; 28-day toxicity study, rat
  Rat STD10 (severely toxic dose in 10% of the animals), Animal Dose: 300 mg mg base/kg/day
[2]; 60-kg human body weight
  HED (mg/person) from rat STD10: 2900 mg mg base/person
[2]; human equivalent dose
  HED (mg/kg) from rat STD10: 48 mg mg base/kg
[2]; safety factor 10
  Starting Dose (mg) from rat STD10: 290 mg mg base
RANTES
  RANTES (% of control): 131 % of control
Aiolos [3]
  inhibitory effect on Aiolos expression: showed inhibitory effect
Tumor cells
  direct in vitro activity against tumor cells: limited direct in vitro activity
Aiolos [4]; AU565 cells overexpressing flag-Aiolos-myc
  time at which reduction of overexpressed Aiolos begins to show: about 5 hours
Aiolos [4]; addition of MG-132
  inhibition of Aiolos with proteasome inhibitor MG-132: rescued
MCP-1
  MCP-1 (% of control): 236 % of control
NFKB
  NFKB DNA binding activity: partially inhibits
Aiolos [5]; absence of a proteasome inhibitor, 60, 120, 240, 500 and 100 nM
  expression of Aiolos: inhibit the expression of Aiolos
Aiolos [5]; proteasome inhibitor present
  expression of Aiolos: little inhibition
IL-10
  IL-10 (% of control): 480 % of control
[6]; 28-day toxicity study, monkey
  Monkey HNSTD: 6 mg/m^2
  Monkey HNSTD (highest non-severely toxic dose), Animal Dose: 0.5 mg base/kg/day and 0.5 mg mg base/kg/day
[6]; 60-kg human body weight
  HED (mg/person) from monkey HNSTD: 10 mg mg base/person
[6]; human equivalent dose
  HED (mg/kg) from monkey HNSTD: 0.16 mg mg base/kg
[6]; safety factor 6
  Starting Dose (mg) from monkey HNSTD: 1.7 mg mg base
HIF1-α
  HIF1α induction in response to hypoxia: inhibits
Aiolos [7]
  expression of Aiolos: inhibited
Aiolos [8]; Her^2+ cells (AU565, BT-474, EFM-192A and HCC1954)
  endogenous Aiolos: inhibited
Aiolos [8]; ZR 75-1 and AU565 cell lines, 24 hours after the treatment
  levels of Aiolos: reduced the levels of Aiolos
